“And” between values parts separate entries of the source, which are not always exact repeats. Equal values may be shown once.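 Test compounds were applied to cells in 96-well plates for 48 hours at 5 doses. The concentration for 50% growth inhibition is given as GI50. Definition used: TGI = concentration required for complete inhibition of growth.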

Among the test systems are COLO 205 colon; U251 CNS; M14 melanoma; KM12 colon; MALME-3M melanoma; SNB-78 CNS; EKVX NSCLC; SN12C renal; NCI-H226 lung.
Assay in all cases: NCI-60 cell line screen, 48 h

On to `COc1cc([C@@H]2c3cc4c(cc3[C@H](O)[C@H]3COC(=O)[C@H]23)OCO4)cc(OC)c1OC`, for which the GI50 is less than 0.01 µM in the test with COLO 205 colon; less than 0.005 µM in the test on U251 CNS; less than 0.005 µM in the test with M14 melanoma; less than 0.01 µM in the test with KM12 colon; less than 0.005 µM with SN12C renal; less than 0.01 µM with NCI-H226 lung. The TGI in the test with COLO 205 colon is less than 0.005 µM; with U251 CNS, > 100 µM and 50 µM and > 7.6 µM; in the test with MALME-3M melanoma it was > 100 µM and 50 µM; with SNB-78 CNS it was more than 100 µM; in the test on EKVX NSCLC, > 100 µM and 50 µM; with SN12C renal it was > 100 µM and 35 µM.

Consider `CCN(CC)CCNC(=O)c1cccc2cc3ccccc3nc12`, for which the TGI in the test with COLO 205 colon worked out at 20.2 µM; in the test with U251 CNS, 81.5 µM; with M14 melanoma it was 21.7 µM; with KM12 colon it was 36.6 µM; with SNB-78 CNS, 57 µM; in the test on EKVX NSCLC, 41.6 µM. Moreover, the TGI in the test with SN12C renal is 51.4 µM; with NCI-H226 lung, 15.9 µM.

As for `O=C(O)C#CCO`, the TGI in the test with COLO 205 colon, with U251 CNS, in the test with M14 melanoma, in the test with KM12 colon, in the test on MALME-3M melanoma and with SNB-78 CNS was more than 100 µM in each case. Further, the TGI in the test with EKVX NSCLC and in the test on SN12C renal was more than 100 µM throughout.

For the compound `CN(c1ccccc1)C1C(=O)N(c2ccccc2)C1/C=C/c1ccccc1` (stereo not given), the TGI in the test with COLO 205 colon, with U251 CNS, in the test with KM12 colon, in the test on MALME-3M melanoma, in the test on SNB-78 CNS and in the test on EKVX NSCLC was more than 100 µM in each case. Moreover, the TGI in the test with SN12C renal and with NCI-H226 lung was more than 100 µM throughout.

As for `Nc1ccccc1NC(=O)c1ccc(CN2CCC/C(=C\c3cccc(Cl)c3)C2=O)cc1`, the GI50 with COLO 205 colon is 0.157 µM; with U251 CNS, 0.138 µM; in the test on M14 melanoma, 0.0521 µM; in the test on KM12 colon it was 0.378 µM; in the test on MALME-3M melanoma it was 1.59 µM; with EKVX NSCLC, 0.567 µM. Besides, the GI50 in the test with SN12C renal is 0.708 µM; with NCI-H226 lung, 2.01 µM. Also, the TGI was 13.2 µM in the test with U251 CNS; 13.7 µM in the test on M14 melanoma; 13.4 µM in the test with KM12 colon; 16.4 µM in the test on MALME-3M melanoma; more than 100 µM in the test with EKVX NSCLC; 85.3 µM in the test on SN12C renal. For the same compound, the TGI with NCI-H226 lung is 7.06 µM.

Take `CC[CH2][Sn]([Cl])([Cl])[CH2]CC`: the GI50 in the test with COLO 205 colon was 8.53 µM; in the test on U251 CNS it was 3.9 µM; in the test on M14 melanoma, 11.1 µM; in the test on KM12 colon, 16 µM; in the test on MALME-3M melanoma, 1.55 µM; in the test with EKVX NSCLC it was 12.3 µM. The GI50 in the test with SN12C renal is 7.08 µM; in the test with NCI-H226 lung it was 4.02 µM. Besides, the TGI with COLO 205 colon came out at 22.5 µM; with U251 CNS, 16.5 µM; in the test on M14 melanoma, 24.1 µM; in the test with KM12 colon, 30.9 µM; in the test with MALME-3M melanoma, 4.91 µM; with EKVX NSCLC, 26.4 µM. Besides, the TGI was determined as 20.2 µM in the test with SN12C renal and 16.5 µM in the test on NCI-H226 lung.

As for `CNC(C)C(=O)N[C@H](C(=O)N1CCC[C@@H]1CN(CCc1ccccc1)C(=O)C(F)(F)F)[C@H](C)OCC#CC#CCO[C@H](C)[C@H](NC(=O)[C@H](C)NC)C(=O)N1CCC[C@H]1CN(CCc1ccccc1)C(=O)C(F)(F)F` (stereo not given in full), the GI50 in the test on COLO 205 colon was 1.42 µM; in the test with U251 CNS, 1.1 µM; with M14 melanoma, 1.79 µM; with KM12 colon it was 1.71 µM; with MALME-3M melanoma, 0.0115 µM; in the test with EKVX NSCLC it was 1.63 µM. Moreover, the GI50 in the test on SN12C renal is 1.78 µM; with NCI-H226 lung it was 1.54 µM. Further, the TGI in the test with COLO 205 colon amounted to 2.99 µM; in the test with U251 CNS, 2.48 µM; in the test with M14 melanoma, 3.41 µM; in the test with KM12 colon, 3.25 µM; in the test with MALME-3M melanoma, 0.716 µM; with EKVX NSCLC, 3.34 µM. Besides, the results for the TGI with SN12C renal and in the test on NCI-H226 lung were 3.32 µM and 3.06 µM, respectively.

Turning to `COc1ccc(/C=C\c2cc(OC)c(OC)c(OC)c2)cc1OC(=O)c1cccc(Cn2cc(CCOC(=O)c3cccc(Cn4nnc5c4C(=O)c4ccccc4C5=O)c3)nn2)c1`, the GI50 in the test with COLO 205 colon was 0.344 µM; in the test with U251 CNS, less than 0.01 µM; in the test with M14 melanoma, less than 0.01 µM; in the test with KM12 colon it was less than 0.0133 µM; with MALME-3M melanoma, 0.178 µM; with EKVX NSCLC, 0.062 µM. The results for the GI50 in the test on SN12C renal and with NCI-H226 lung were less than 0.0173 µM and 0.15 µM, respectively. Moreover, the TGI with U251 CNS is more than 100 µM; in the test with M14 melanoma, 10.9 µM; in the test with KM12 colon, more than 77.6 µM; in the test on MALME-3M melanoma, more than 71.3 µM; in the test with EKVX NSCLC, more than 100 µM; in the test on SN12C renal it was more than 100 µM. The compound also came in with a TGI with NCI-H226 lung of more than 37.1 µM.

Regarding `COC(=O)[C@H](CC(C)C)NC(=O)NC(=O)NC(=O)CI`, the GI50 in the test on COLO 205 colon is 1.79 µM; with U251 CNS, 15.8 µM; in the test with M14 melanoma, 2.03 µM; in the test on KM12 colon, 15.8 µM; in the test with MALME-3M melanoma it was 1.62 µM; in the test with EKVX NSCLC, 16.1 µM. Moreover, the values for the GI50 with SN12C renal and in the test with NCI-H226 lung were 3.61 µM and 2.95 µM, respectively. Moreover, the TGI stood at 3.47 µM in the test on COLO 205 colon; 29.3 µM in the test on U251 CNS; 4.94 µM in the test with M14 melanoma; 32.8 µM in the test on KM12 colon; 3.43 µM in the test on MALME-3M melanoma; 29.8 µM in the test with EKVX NSCLC. The TGI with SN12C renal came to 16.2 µM; in the test with NCI-H226 lung, 10 µM.

Consider `OC(COc1cccc2ccccc12)CN1CCN(c2ccccc2)CC1` (stereo not given), for which the GI50 in the test with COLO 205 colon is 16.4 µM; in the test on U251 CNS, 17.3 µM; in the test with M14 melanoma, 15.5 µM; in the test on KM12 colon, 16.1 µM; with MALME-3M melanoma, 15.3 µM; in the test with EKVX NSCLC, 15.4 µM. Moreover, the GI50 in the test on SN12C renal is 16.4 µM; with NCI-H226 lung, 14.7 µM. Further, the TGI in the test on COLO 205 colon amounted to 30.9 µM; in the test with U251 CNS, 32.1 µM; in the test with M14 melanoma, 29.7 µM; in the test with KM12 colon, 31 µM; with MALME-3M melanoma, 31.4 µM; in the test on EKVX NSCLC, 32.3 µM. The TGI in the test with SN12C renal came to 31 µM; in the test on NCI-H226 lung, 29.7 µM.

Values taken from PubChem BioAssay (NCI).
